Measured values reported in patent publication US8652804B2, “Transcription factor-based biosensors for detecting dicarboxylic acids” (priority 2011, dated 2014).

Tests used:
[1] = biological target: PcaR transcription factor (Pseudomonas putida, UniProt Q52154); settings: for biosensor response (OD600 increase / tetracycline resistance) in words: plasmids S3/S2, 25 μg/ml tetracycline, 12 hours growth; for linear response range: plasmids S3/S2, E. coli K12, tetracycline medium, 12 hours, exogenously added dicarboxylic acid; for dynamic range (maximum difference in OD600 between fully induced samples and samples without dicarboxylic acid), ranking in words: plasmids S3/S2, compared among the four dicarboxylic acids
Description: The X-axis is the concentration of exogenous dicarboxylic acid supplemented to the growth medium; the Y-axis is the cell culture density (OD600) after 12 hours growth in medium supplemented with 25 μg/ml tetracycline. E. coli strain “PcaR (+)” comprises plasmids S3/S2 and produces the tetracycline resistance protein upon exogenous addition of dicarboxylic acids. E. coli strain “PcaR (−)” comprises plasmids S1/S2 and produces a negative control protein, PcaI, upon exogenous addition of the indicated dicarboxylic acids.
Three plasmids were used to characterize biosensor response to exogenously added butanedioic acid, pentanedioic acid, hexanedioic acid and heptanedioic acid. The constructed plasmids employ the beta-keto hexanedioic acid and hexanedioic responsive transcription factor, PcaR, and the PcaR-responsive promoters, PPcaR (SEQ ID NO: 16) and PPcaIJ (SEQ ID NO:17), from Pseudomonas putida. Plasmid 51 harbors the P. putida gene pcaI under transcriptional control of it native PPcaIJ promoter on an E. coli vector backbone with ampicillin resistance marker and ColE1 origin of replication. Plasmid S3 harbors the tetA tetracycline resistance gene under control of the PcaIJ promoter on an E. coli vector backbone with ampicillin resistance marker and ColE1 origin of replication. Plasmid S2 harbors the pcaR transcription factor gene under control of its native PPcaR promoter on an E. coli vector backbone comprising a chloramphenicol resistance marker and pSC101 origin of replication.
E. coli strain K12 was co-transformed with either plasmids S1/S2 or S3/S2 and individual colonies isolated from LB agar plates (Cb^50, Cm^50). Colonies were grown in 25 ml LB broth (Cb^50, Cm^50) until reaching an optical density at 600 nm (OD600) of approximately 0.50, at which point cell stocks were prepared and stored at −80° C.; cell stocks were comprised of 0.5 ml cell culture and 0.5 ml of a 50% v/v glycerol solution.
Biosensor experiments were performed with butanedioic acid, pentanedioic acid, hexanedioic acid, and heptanedioic acid. An aliquot of biosensor cell stock was thawed and used to inoculate 50 ml of LB medium (Cb^50, Cm^50) in a 250 ml, baffled Erlenmeyer flask. Cultures were incubated for 2 hours at 37° C.; subsequently, 0.6 ml biosensor culture was added to 48-well plates prepared with 2.3 ml LB medium (Cb^50, Cm^50) supplemented with tetracycline and dicarboxylic acid at the desired concentration (n=4). Plates were than grown at 30° C. on an orbital titer plate shaker (Lab Line Instruments). Following 12 hours incubation, 200 μl samples were taken for OD600 measurement (Tecan Ultra).

[2] = test system: E. coli DcuS-DcuR two-component system; settings: plasmid S4 (PDctA-tetA), E. coli K12, 25 μg/ml tetracycline, 12 hours, exogenously added acid
Description: This example describes a dicarboxylic acid-responsive two-component system of the invention comprised of the E. coli DcuS-DcuR proteins expressed in a wild type E. coli K12 host.
(§1) E. coli strain K12 was transformed with plasmids S4, S5, or S6 and individual colonies isolated from LB agar plates (Cb^50). Colonies were grown in 25 ml LB broth (Cb^50) until reaching an optical density at 600 nm (OD600) of approximately 0.50, at which point cell stocks were prepared and stored at −80° C.; cell stocks comprised 0.5 ml cell culture and 0.5 ml of 50% v/v glycerol in water.
(§2) Biosensor experiments were performed with butanedioic acid. An aliquot of biosensor cell stock was thawed and used to inoculate 50 ml of LB medium (Cb^50) in a 250 ml, baffled Erlenmeyer flask. […] Plates were grown at 30° C. on an orbital titer plate shaker (Lab Line Instruments). Following 12 hours incubation, 200 μl samples were taken for OD600 measurement (Tecan Ultra).

[3] = test system: E. coli DcuS-DcuR two-component system; settings: plasmids S5 (PDcuB#21) or S6 (PDcuB#22), 25 μg/ml tetracycline
Description: as §1, §2

PcaR transcription factor, sequence (Q52154 whole entry L6P/V7A/D9E/P10S/V11A/P15S/S20A/A21P/M23L/S96T/G197D/H210N/P212A): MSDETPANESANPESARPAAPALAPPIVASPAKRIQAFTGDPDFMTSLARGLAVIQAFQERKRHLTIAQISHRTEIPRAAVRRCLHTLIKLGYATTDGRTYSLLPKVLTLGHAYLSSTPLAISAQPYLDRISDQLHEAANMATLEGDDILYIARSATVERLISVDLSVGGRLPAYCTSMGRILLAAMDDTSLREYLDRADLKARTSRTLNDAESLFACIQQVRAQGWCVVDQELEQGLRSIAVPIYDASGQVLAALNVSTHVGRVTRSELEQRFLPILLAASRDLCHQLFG

O=C(O)CCC(=O)O [butanedioic acid]
biosensor response (OD600 increase / tetracycline resistance) in words [1]: dicarboxylic acid-dependent increases in tetracycline resistance
linear response range [1]: 1.5 to 4 mM
dynamic range of biosensor response [2]: over 1.2 OD600 units
growth of biosensor cultures versus acid concentration, in words [3]: grew under all butanedioic acid concentrations tested

O=C(O)CCCCCC(=O)O [heptanedioic acid]
biosensor response (OD600 increase / tetracycline resistance) in words [1]: dicarboxylic acid-dependent increases in tetracycline resistance
linear response range [1]: 0.5 to 6 mM
dynamic range (maximum difference in OD600 between fully induced samples and samples without dicarboxylic acid), ranking in words [1]: highest dynamic range

O=C(O)CCCCC(=O)O [hexanedioic acid]
biosensor response (OD600 increase / tetracycline resistance) in words [1]: dicarboxylic acid-dependent increases in tetracycline resistance
linear response range [1]: 0.25 to 6 mM
dynamic range (maximum difference in OD600 between fully induced samples and samples without dicarboxylic acid), ranking in words [1]: highest dynamic range

O=C(O)CCCC(=O)O [pentanedioic acid]
biosensor response (OD600 increase / tetracycline resistance) in words [1]: dicarboxylic acid-dependent increases in tetracycline resistance
linear response range [1]: 1 to 2.5 mM
